Reference: patent publication US9994915B2, “miR-211 expression and related pathways in human melanoma” (Sanford-Burnham Medical Research Institute, priority 2010, dated 2018)

What was measured:
Format in all cases: cell-based, human
[1] = tested on: IGFBP5 mRNA; assay: Next Gen sequencing of IGFBP5 mRNA in WM1552C cells
Protocol: To extend the findings of the MITF knock-down study and to further establish IGFBP5 as a miR-211 target, the effect of miR-211 expression on IGFBP5 mRNA was determined. WM1552C cells were transfected with either an empty vector or the vector encoding and expressing miR-211. Additionally, untransfected WM1552C cells were treated with 5-Aza-2′deoxycytidine (“5-Aza”) to investigate whether miR-211 down-regulates IGFBP5 mRNA production through a genomic methylation mechanism.

[2] = tested on: A375 cells; assay: cell counts after DFO (simulated hypoxia), A375 and A375/211
Protocol: (§1) A375 cells and WM1552C, both wild-type and miR-211-expressing, were subjected to treatment with 0, 250 nM, or 400 nM defroxamine (DFO) to simulate hypoxic conditions in order to determine whether miR-211 expression is capable of being regulated by changes in O2 concentrations. Cell counts were performed for each treatment group.
(§2) Relative to untreated cells, survival was about 45% following 250 nM DFO and about 25% following 400 nM DFO. The presence of miR-211 in these cells caused this effect to be greatly exacerbated, reducing survival to about 13% at 250 nM DFO and about 8% at 400 nM DFO. Similarly, for WM1552C cells, survival was about 77% at 250 nM DFO and about 55% at 400 nM DFO, compared to untreated cells (FIG. 21).

[3] = tested on: WM1552C cells; assay: cell counts after DFO (simulated hypoxia), WM1552C and WM1552C/211
Protocol: as §1, §2

[4] = tested on: SKMEL-28 cells; assay: cell counts after DFO with or without miR-211 inhibitor, SKMEL-28
Protocol: SKMEL-28 cells, were subjected to the same DFO or hypoxic conditions as described above either in the presence or absence of an miR-211 inhibitor (has-miR-211 Anti-miR™ miRNA Inhibitor, Ambion, catalog numberAM17000, ID AM10168). […] The survival of SKMEL-28 cells was about 64% at 250 nM DFO and about 50% 400 nM DFO, compared to untreated cells. […] The survival of the SKMEL-28 cells treated with the miR-211 inhibitor was about 85% at 250 nM DFO and about 70% at 400 nM DFO.

[5] = tested on: miR-211 expression; assay: qPCR of miR-211 expression under simulated hypoxia in melanocytes; conditions: DFO-simulated hypoxia
Protocol: (§3) The effect of hypoxia on miR-211 expression was investigated under simulated (DFO) and actual hypoxic conditions in both melanocytes and SKMEL-28 cells. miRNA-211 expression was determined by qPCR.

[6] = tested on: miR-211 expression; assay: qPCR of miR-211 expression under simulated hypoxia in SKMEL-28 cells; conditions: DFO-simulated hypoxia
Protocol: as §3

Row | SMILES | IGFBP5 mRNA expression [1] | survival relative to untreated cells ([2]; A375/211 (miR-211-expressing) cells, 250 nM DFO) | survival relative to untreated cells ([2]; A375/211 (miR-211-expressing) cells, 400 nM DFO) | survival relative to untreated cells ([2]; A375 cells, 250 nM DFO) | survival relative to untreated cells ([2]; A375 cells, 400 nM DFO) | cell death ([2]; miR-211-expressing melanoma cells treated with hypoxia mimetic agent) | survival compared to untreated cells ([3]; WM1552C cells, 250 nM DFO) | survival compared to untreated cells ([3]; WM1552C cells, 400 nM DFO) | survival compared to untreated cells ([3]; WM1552C/211 (miR-211-expressing) cells, 250 nM DFO) | survival compared to untreated cells ([3]; WM1552C/211 (miR-211-expressing) cells, 400 nM DFO) | survival compared to untreated cells ([4]; 250 nM DFO) | survival compared to untreated cells ([4]; 400 nM DFO) | miR-211 expression [5] | miR-211 expression [6]
1 | Nc1ncn([C@H]2C[C@H](O)[C@@H](CO)O2)c(=O)n1 [5-Aza, 5-Aza-2′deoxycytidine, reference compound] | no effect |  |  |  |  |  |  |  |  |  |  |  |  | 
2 | CC(=O)N(O)CCCCCNC(=O)CCC(=O)N(O)CCCCCNC(=O)CCC(=O)N(O)CCCCCN [DFO, defroxamine] |  | about 13% | about 8% | about 45% | about 25% | increased cell death | about 77% | about 55% | about 40% | about 21% | about 64% | about 50% | increases in a dose-dependent manner | neither simulated nor actual hypoxic conditions had a significant effect
